Measured values published in US7196105B2, “Treatment of human multiple myeloma by curcumin” (Research Development Foundation, priority 2002, dated 2007).

What was measured:
Format in all cases: cell-based, human
IKKα and IKKβ = assay: Western blot for total IKKα and IKKβ proteins in U266 cytoplasmic extracts; conditions: U266 cells, curcumin 50 μM
Experimental: FIG. 3A: Level of phosphorylated IκBα determined by Western blotting. FIG. 3B: Immunoprecipitated IκB kinase and kinase assay of IκB kinase activity (upper panel) or Western blotting for the analysis of total IKKα and IKKβ proteins in cytoplasmic extracts (lower panel). FIG. 3C: IκB kinase was immunoprecipitated and kinase assay was performed in the absence or presence of the indicated concentrations of curcumin (upper panel). Lower panel indicates the amount of GST-IκBα protein stained with Coomassie Blue in each well in the same dried gel. To determine the total amount of IKK complex in each sample, […] of cytoplasmic protein was resolved on a 7.5% acrylamide gel and then electrotransferred to a nitrocellulose membrane. The membrane was blocked with 5% nonfat milk protein for 1 h and then incubated with either anti-IKKα or anti-IKKβ antibodies for 1 h. The membrane was then washed and treated with HRP-conjugated secondary anti-mouse IgG antibody and finally detected by chemiluminescence (Amersham Pharmacia Biotech, Arlington Heights, Ill.).

NF-κB = assay: Immunocytochemistry for NF-κB in bone marrow CD138+ cells from multiple myeloma patients; conditions: patients #5, #9 and #10, 50 μM curcumin, 2 h
Experimental: The cells were fixed on slides by cytospin centrifugation and immuno-stained for NF-κB or STAT3. Red stain indicates specific staining for NF-κB or STAT3, whereas blue stain indicates the relative position of the nuclei in the corresponding view.
Red stain indicates the specific staining for NF-κB or STAT3 as indicated, whereas blue stain indicates the relative position of the nuclei in the corresponding view.
Untreated or treated multiple myeloma cells were plated on a poly-L-lysine-coated glass slide by centrifugation using a Cytospin 4 (Thermoshendon, Pittsburg, Pa.), air-dried for 1 h at room temperature, and fixed with cold acetone. After a brief washing in PBS, slides were blocked with 5% normal goat serum for 1 h and then incubated either with rabbit polyclonal anti-human NF-κB p65 antibody (SC-109; dilution, 1:100) or with anti-human STAT3 antibody (SC-482; dilution, 1:100). After overnight incubation, the slides were washed and then incubated with goat anti-rabbit IgG-Alexa 594 (A-11037; dilution, 1:100) for 1 h and counter-stained for nuclei with Hoechst (50 ng/ml) for 5 min. Stained slides were mounted with mounting medium (Sigma Colo.) and analyzed under an epifluorescence microscope (Labophot-2, Nikon, Tokyo, Japan). […]

IL-6 = IL-6 ELISA of culture supernatants; conditions: U266 cells, curcumin (legend b20: 10 mM)
Experimental: Sixty micrograms of cytoplasmic extracts were resolved on 10% SDS-PAGE gel, electrotransferred on a nitrocellulose membrane, and probed for the following: IκBα (FIG. 4A); Bcl-2 (FIG. 4B); Bcl-xL (FIG. 4C) and cyclin D1 (FIG. 4D). The same blots were stripped and reprobed with anti-β-actin antibody to show equal protein loading (lower panel in each figure). FIG. 4E: […] U266, MM.1 or RPMI 8226 cells (1×10^7) were treated with curcumin ([…]) in 5 ml of medium for the indicated times. Supernatants were harvested and concentrated approximately 20×, and IL-6 was quantitated by an IL-6 ELISA kit. Values shown were normalized to 1 ml of un-concentrated supernatants. […] One hundred microliter aliquots were removed, and IL-6 contents were determined by an ELISA kit (Biosource International).

[1] = test system: CD138+ cells from multiple myeloma patients; assay: Viability of bone marrow CD138+ cells from multiple myeloma patients (MTT or trypan blue); conditions: 24 h
Experimental: Briefly, cells (5000/well) were incubated in triplicate in a 96-well plate in the presence or absence of indicated test samples in a final volume of 0.1 ml for 24 h at 37° C. Thereafter, 0.025 ml of MTT solution (5 mg/ml in PBS) was added to each well. After a 2 h incubation at 37 ° C., 0.1 ml of extraction buffer (20% SDS, 50% dimethylformamide) was added. Incubation was continued for overnight at 37 ° C., and then the OD at 590 nm was measured using a 96-well multiscanner autoreader (Dynatech MR 5000), with extraction buffer as blank. Percent cell viability=(OD of the experiment samples/OD of the control)×100.

p65 subunit of NF-κB = assay: Immunocytochemistry for NF-κB p65 localization in multiple myeloma cell lines; conditions: all four multiple myeloma cell lines, curcumin 50 μM, 4 hours
Experimental: Red stain indicates the localization of p65 and blue stain (Hoechst) indicates nucleus (magnification 200×). […] U266 cells (2×10^6 cells/ml) were treated with indicated concentrations of NEMO-control or NBD-peptide (100 μM) for the indicated times. Nuclear extracts were then checked for the presence of NF-κB DNA-binding activity by EMSA. […] Untreated or NBD-peptide-treated (100 μM; 12 h) U266 cells were cytospun, and p65 immunocytochemistry was performed as described. Red stain indicates the localization of p65 and blue stain indicates nucleus (magnification 200×). […] U266 cells (2×10^6 cells/ml) were treated with indicated concentrations of NEMO-control or NBD-peptide (100 μM) for the indicated time periods, and cell viability was monitored by the trypan blue dye exclusion method. Percent cell killing was determined as: (number of trypan blue stained cells/total cells)×100. […] Stained slides were mounted with mounting medium (Sigma Colo.) and analyzed under an epifluorescence microscope (Labophot-2, Nikon, Tokyo, Japan). […] Cells with nuclear staining of NF-κB p65 or STAT3 were counted separately. One hundred cells were counted for each specimen, and the sample was graded on the basis of a 4-point scale: −, no nuclear positive cells (0%); +, low number of nuclear positive cells (<10%); ++, moderate number of nuclear positive cells (10–50%); +++, high number of nuclear positive cells (>50%).

How did the “protein levels of IκB kinase subunits IKKα and IKKβ” value (IKKα and IKKβ) turn out when COc1cc(/C=C/C(=O)CC(=O)/C=C/c2ccc(O)c(OC)c2)ccc1O [curcumin, diferuloylmethane] was run?
The value was “no significant change”.

What about the “constitutive NF-κB activation (nuclear localization)” value (NF-κB) of the same compound?
Its value is “downregulated NF-κB”.

What about the IL-6 production (IL-6) of the same compound?
The IL-6 production was “inhibited the production of IL-6”.

What about the cell survival ([1]; patient #20, indicated concentrations, MTT) of the same compound?
Its cell survival is “much more effective in inhibiting the survival of multiple myeloma cells than dexamethasone”.

What about the cell survival ([1]; patients #7, #9 and #10, different concentrations) of the same compound?
The cell survival was “decreased cell survival in a dose-dependent manner”.

What about the “nuclear translocation of p65” value (p65 subunit of NF-κB) of the same compound?
Its value is “prevented the translocation of the p65 subunit of NF-κB to the nucleus”.
